Earlier results on 2 compounds are cited in article PMC9611259, “Antimicrobial Peptides Active in In Vitro Models of Endodontic Bacterial Infections Modulate Inflammation in Human Cardiac Fibroblasts” (Pharmaceutics, 2022).

The test system of this data set is E. faecalis. The settings on record: standard-of-care antibiotics against E. faecalis; cited from earlier work. As to the method: As reported in Table 2, biofilm inhibition was tested against two strains of E. faecalis, ATCC 51,299 and PE endodontic isolate, and two strains of E. coli, TG1 reference strain and LC711 clinical isolate (Table 2). The BPC of M33D was equal to the MIC against E. faecalis reference strain ATCC 51,299 and clinical isolate PE. The BPC of M33i/l was double and equal to the MIC in E. faecalis reference strain and clinical isolate, respectively. The MBIC of both peptides against E. faecalis reference strain and PE was 6 μM, i.e., from two to three times the MIC. The results are particularly promisi ...

As to `CC1(C)S[C@@H]2[C@H](NC(=O)[C@H](N)c3ccccc3)C(=O)N2[C@H]1C(=O)O` [ampicillin], the “MBIC as multiple of the MIC” value was 2048 times the MIC.

On to `CC(=O)NC[C@H]1CN(c2ccc(N3CCOCC3)c(F)c2)C(=O)O1` [linezolid], for which the “MBIC as multiple of the MIC” value was 1024 times the MIC.
